These results are taken from ChEMBL document CHEMBL5338722, “Optical-Controlled Kinetic Switch: Fine-Tuning of the Residence Time of an Antagonist Binding to the Vasopressin V2 Receptor in In Vitro, Ex Vivo, and In Vivo Models of ADPKD” (J Med Chem, 2023).

Data set [1] addresses T1, Vasopressin V2 receptor (Homo sapiens, UniProt P30518). Put plainly: Displacement of conivaptan-red fluorescent probe from SNAP-tagged human vasopressin V2 receptor expressed in HEK293 cells compound pre-illuminated for 10 mins with light at 365 nm and further incubated for 1 hr by HTRF assay. The format is cell-based. For orientation: TR-FRET usually uses a lanthanide donor and a delayed reading to cut background.

Data set [2] addresses T1, Vasopressin V2 receptor. Kind of data set: Displacement of conivaptan-red fluorescent probe from SNAP-tagged human vasopressin V2 receptor expressed in HEK293 cells compound pre-illuminated for 10 mins with light at 435 nm and further incubated for 1 hr by HTRF assay. The format is cell-based.
For data set [3], the target named is T1, Vasopressin V2 receptor. Kind of data set: Displacement of conivaptan-red fluorescent probe from SNAP-tagged human vasopressin V2 receptor expressed in HEK293 cells at 10 uM compound pre-illuminated for 10 mins with light at 435 nm and further incubated for 1 hr by HTRF assay relative to control. The format is cell-based.
Data set [4] concerns the target T1, Vasopressin V2 receptor. Kind of data set: Displacement of conivaptan-red fluorescent probe from SNAP-tagged human vasopressin V2 receptor expressed in HEK293 cells assessed as kinetic rate index by measuring ratio of binding of labeled probe at 15 mins to 60 mins at IC50 compound pre-illuminated for 10 mins with light at 365 nm by dual-point competition association assay. The format is cell-based. Conditions: filed as antagonist.

Data set [5] deals with Vasopressin V1a receptor (Homo sapiens) (UniProt P37288). Kind of data set: Displacement of [3H]vasopressin from human V1A receptor expressed in CHO cell membranes at 1 uM compound pre-illuminated for 10 mins with light at 365 nm by radioligand displacement assay relative to control. The conditions noted are these: Membrane. (In a radioligand displacement assay an active substance lowers the binding of a labelled ligand.)

For data set [6], the target named is T1, Vasopressin V2 receptor. Put plainly: Displacement of conivaptan-red fluorescent probe from SNAP-tagged human vasopressin V2 receptor expressed in HEK293 cells assessed as residence time at 0.1 uM compound pre-illuminated for 10 mins with light at 365 nm by dual-point competition association assay. The format is cell-based. Conditions: filed as antagonist.

Data set [7] has as its target T1, Vasopressin V2 receptor. Kind of data set: Displacement of conivaptan-red fluorescent probe from SNAP-tagged human vasopressin V2 receptor expressed in HEK293 cells assessed as on-rate constant at 0.1 uM compound pre-illuminated for 10 mins with light at 365 nm by dual-point competition association assay. Format: cell-based. The conditions noted are these: filed as antagonist.

Data set [8] has as its target T1, Vasopressin V2 receptor. Put plainly: Displacement of conivaptan-red fluorescent probe from SNAP-tagged human vasopressin V2 receptor expressed in HEK293 cells assessed as off-rate constant at 0.1 uM compound pre-illuminated for 10 mins with light at 365 nm by dual-point competition association assay. Format: cell-based. The conditions noted are these: filed as antagonist.

The target in data set [9] is T1, Vasopressin V2 receptor. Kind of data set: Antagonist activity at human vasopressin V2 receptor expressed in CHO cells assessed as inhibition of cAMP production. Format: functional, cell-based. Conditions: filed as antagonist. In general terms: Changes in cAMP serve as a functional read-out for many G protein-coupled receptors.
In data set [10] the target is T1, Vasopressin V2 receptor. Put plainly: Antagonist activity at human vasopressin V2 receptor expressed in CHO cells assessed as inhibition of vasopressin induced cAMP production at 10 times Ki preincubated for 30 mins followed by two consecutive washouts and irradiated with light at 435 nm during two washouts. Format: functional, cell-based.
The target in data set [11] is T1, Vasopressin V2 receptor. Kind of data set: Antagonist activity at human vasopressin V2 receptor expressed in CHO cells assessed as inhibition of vasopressin induced cAMP production at 10 times Ki preincubated for 30 mins followed by two consecutive washouts and irradiated with light at 365 nm during two washouts. The format is functional, cell-based.
Data set [12] concerns the target T1, Vasopressin V2 receptor. Put plainly: Antagonist activity at human vasopressin V2 receptor expressed in CHO cells assessed as inhibition of vasopressin induced cAMP production at 10 times Ki preincubated for 30 mins followed by two consecutive washouts and irradiated with light at 365 nm in first 30 mins of washout and with light at 435 nm in second 30 mins of washout. The format is functional, cell-based.

Data set [13] addresses T1, Vasopressin V2 receptor. Kind of data set: Antagonist activity at human vasopressin V2 receptor expressed in CHO cells assessed as inhibition of vasopressin-induced cAMP production at 10 times Ki preincubated for 30 mins followed by two consecutive washouts and irradiated with light at 435 nm in first 30 mins of washout and with light at 365 nm in second 30 mins of washout. Format: functional, cell-based. Conditions: filed as antagonist.

Data set [14] has as its target T1, Vasopressin V2 receptor. Kind of data set: Antagonist activity at human vasopressin V2 receptor expressed in CHO cells assessed as inhibition of AVP-induced cAMP production at 1 uM preincubated for 30 mins followed by two consecutive washouts and irradiated with light at 365 nm during two washouts. The conditions noted are these: filed as antagonist. Format: functional, cell-based.

Data set [15] addresses Serine/threonine-protein kinase mTOR (Homo sapiens) (UniProt P42345). Put plainly: Inhibition of mTOR (unknown origin) assessed as inhibition of p70S6K phosphorylation at 10 times Ki preincubated for 30 mins followed by two consecutive washouts and irradiated with light at 365 nm during two washouts by Western blot analysis.
Data set [16] has the same target. Kind of data set: Inhibition of mTOR (unknown origin) assessed as inhibition of p70S6K phosphorylation at 10 times Ki preincubated for 30 mins followed by two consecutive washouts and irradiated with light at 365 nm in first 30 mins of washout and with light at 435 nm in second 30 mins of washout by Western blot analysis.
For data set [17] the target is unchanged. Put plainly: Inhibition of mTOR (unknown origin) assessed as inhibition of p70S6K phosphorylation at 10 times Ki preincubated for 30 mins followed by two consecutive washouts and irradiated with light at 435 nm in first 30 mins of washout and with light at 365 nm in second 30 mins of washout by Western blot analysis.
For data set [18] the target is unchanged. Kind of data set: Inhibition of mTOR (unknown origin) assessed as inhibition of p70S6K phosphorylation at 10 times Ki preincubated for 30 mins followed by two consecutive washouts and irradiated with light at 435 nm during two washouts by Western blot analysis.
In data set [19] the test system is Mus musculus. Kind of data set: In vivo inhibition of renal cystogenesis in Pkd1 knock-out autosomal dominant polycystic kidney disease mouse model assessed as reduction in kidney size with fewer cysts at 5 mg/kg, sc administered once daily for 7 days compound pre-irradiated with light at 365 nm prior to administration by Hematoxylin-eosin staining based analysis. Format: functional, organism-based. Conditions: time 7.0 day.

Data set [20] relates to Kidney. Kind of data set: Ex vivo inhibition of renal cystogenesis in ADPKD C57BL/6 mouse kidney assessed as suppression of 8-Br-cAMP-induced cyst development at 10 uM measured after 4 days in presence of 8-Br-cAMP by inverted microscopic analysis. The format is functional, tissue-based. The conditions noted are these: time 4.0 day.
In data set [21] the test system is Kidney. Put plainly: Ex vivo target occupancy at vasopressin V2 receptor in Sprague-Dawley rat kidney assessed as endurance in retention time by measuring half life at 0.1 uM treated for 30 mins followed by extensive drug wash-out for 240 mins by LC-MS analysis. Format: functional, tissue-based.
The nature of data set [22]: Drug uptake in Sprague-Dawley rat kidney at 0.1 uM treated for 30 mins followed by extensive drug wash-out for 4 hrs by LC-MS analysis. The format is ADME, tissue-based. Conditions: in vivo, 0.5 h.
Data set [23] concerns Mus musculus. Put plainly: In vivo inhibition of renal cystogenesis in Pkd1 knock-out autosomal dominant polycystic kidney disease mouse model assessed as reduction in kidney size at 5 mg/kg, sc administered once daily for 7 days compound pre-irradiated with light at 365 nm prior to administration. The format is functional, organism-based. Conditions: time 7.0 day.
Data set [24] is described as follows: In vivo inhibition of renal cystogenesis in Pkd1 knock-out autosomal dominant polycystic kidney disease mouse model assessed as disease progression at 5 mg/kg, sc administered once daily for 7 days compound pre-irradiated with light at 365 nm prior to administration. Also noted: scale not given: the % may be the effect or the level left. Format: functional. Conditions: time 7 day.

The subject of data set [25] is Mus musculus. Kind of data set: In vivo inhibition of renal cystogenesis in Pkd1 knock-out autosomal dominant polycystic kidney disease mouse model assessed as reduction in cysts area at 5 mg/kg, sc administered once daily for 7 days compound pre-irradiated with light at 365 nm prior to administration by Hematoxylin-eosin staining based analysis. Format: functional, organism-based. Conditions: time 7.0 day.

Data set [26] concerns the target T1, Vasopressin V2 receptor. Put plainly: Displacement of conivaptan-red fluorescent probe from SNAP-tagged human vasopressin V2 receptor expressed in HEK293 cells assessed as leftward shift in competition curve at 0.1 uM compound pre-illuminated for 10 mins with light at 365 nm and measured for 10 to 60 mins by dual-point competition association assay. The format is cell-based. The conditions noted are these: filed as antagonist, time 10-60 min.

The target of data set [27] is T1, Vasopressin V2 receptor. Put plainly: Displacement of conivaptan-red fluorescent probe from SNAP-tagged human vasopressin V2 receptor expressed in HEK293 cells assessed as on-rate constant at IC50 by TR-FRET based competition association assay. Conditions: filed as antagonist. The format is cell-based.
Data set [28] has as its target T1, Vasopressin V2 receptor. Put plainly: Displacement of conivaptan-red fluorescent probe from SNAP-tagged human vasopressin V2 receptor expressed in HEK293 cells assessed as off-rate constant at IC50 by TR-FRET based competition association assay. Format: cell-based. The conditions noted are these: filed as antagonist.
Data set [29] deals with T1, Vasopressin V2 receptor. Kind of data set: Displacement of conivaptan-red fluorescent probe from SNAP-tagged human vasopressin V2 receptor expressed in HEK293 cells assessed as residence time at IC50 by TR-FRET based competition association assay. Format: cell-based. The conditions noted are these: filed as antagonist.

Molecules are shown by their SMILES. Activity calls are given as the source filed them. The calls are words filed in the database; no cut-off is given here. Some results are limits rather than exact numbers.

T1 sequence (P30518 whole entry): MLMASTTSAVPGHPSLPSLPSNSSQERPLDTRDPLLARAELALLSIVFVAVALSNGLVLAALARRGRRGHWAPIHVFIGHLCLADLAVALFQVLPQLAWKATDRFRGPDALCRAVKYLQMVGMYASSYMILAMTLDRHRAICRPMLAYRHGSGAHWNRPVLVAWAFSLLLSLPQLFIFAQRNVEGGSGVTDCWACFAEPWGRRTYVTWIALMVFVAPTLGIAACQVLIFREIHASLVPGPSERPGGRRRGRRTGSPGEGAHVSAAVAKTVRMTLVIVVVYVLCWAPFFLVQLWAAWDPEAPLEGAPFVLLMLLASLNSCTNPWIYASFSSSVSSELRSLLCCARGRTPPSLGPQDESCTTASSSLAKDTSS
Chain of Vasopressin V1a receptor (Homo sapiens) (P37288 whole entry, looked up): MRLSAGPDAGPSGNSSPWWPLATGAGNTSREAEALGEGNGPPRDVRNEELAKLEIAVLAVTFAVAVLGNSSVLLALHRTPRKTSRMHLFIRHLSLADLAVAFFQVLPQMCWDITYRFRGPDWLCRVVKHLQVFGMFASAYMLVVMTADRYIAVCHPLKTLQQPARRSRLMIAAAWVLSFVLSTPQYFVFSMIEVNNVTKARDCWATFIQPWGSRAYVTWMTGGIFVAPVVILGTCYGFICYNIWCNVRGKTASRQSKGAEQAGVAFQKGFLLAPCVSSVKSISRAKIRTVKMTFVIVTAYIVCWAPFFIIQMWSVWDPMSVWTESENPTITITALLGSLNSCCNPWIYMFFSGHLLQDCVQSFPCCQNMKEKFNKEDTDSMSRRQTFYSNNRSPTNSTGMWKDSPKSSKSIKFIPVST

For `Cc1ccccc1/N=N\c1ccc(C(=O)N2Cc3cccn3Cc3ccccc32)c(Cl)c1`, at Vasopressin V2 receptor [1], the Ki was 1.24 µM.

As to `O=C(c1ccc(/N=N/c2ccc(F)cc2)cc1Cl)N1Cc2cccn2Cc2ccccc21`, at Vasopressin V2 receptor [2], the Ki came out at 0.851 µM.

The molecule `O=C(c1ccc(/N=N/c2ccc(-c3ccccc3)cc2)cc1Cl)N1Cc2cccn2Cc2ccccc21` yielded an inhibition on Vasopressin V2 receptor [3] of 33%.

`Cc1ccc(/N=N\c2ccc(C(=O)N3Cc4cccn4Cc4ccccc43)c(Cl)c2)cc1` gave a Ki at Vasopressin V2 receptor [1] of 0.04 µM. The Ratio on Vasopressin V2 receptor [4] came out at 1.72. For the same molecule, the inhibition in data set [5] is less than 40%. Besides, on Vasopressin V2 receptor [6], the TIME was found to be 1.07 h. Further, the figures for the K on Vasopressin V2 receptor [7] and at Vasopressin V2 receptor [8] were 6.6 10^5/M/min and 0.017 min⁻¹, respectively. The inhibition result (on Vasopressin V2 receptor [9]; on Vasopressin V2 receptor [11] (filed as antagonist); at Vasopressin V2 receptor [13]; at Vasopressin V2 receptor [14]; in [15]; in the data set on Mus musculus [19]) was “Active” throughout. Further, the inhibition entry with Kidney [20], in the data set with Mus musculus [23] and with Mus musculus [25] was “Active” in each case. The inhibition result (on Vasopressin V2 receptor [10]; at Vasopressin V2 receptor [12]; in data set [16]; in data set [17]; in [18]) was “inactive” throughout. Besides, in the data set on Kidney [21], the T1/2 came out at 1.82 h. In data set [22], the Drug uptake was determined as 26 nM. For the same molecule, the Activity in data set [24] is listed as 14.6%. In addition, the outcome at Vasopressin V2 receptor [26] was Active.

`Cc1ccccc1/N=N/c1ccc(C(=O)N2Cc3cccn3Cc3ccccc32)c(Cl)c1` registered a Ki on Vasopressin V2 receptor [2] of 0.432 µM.

`Cc1cccc(/N=N\c2ccc(C(=O)N3Cc4cccn4Cc4ccccc43)c(Cl)c2)c1` yielded a Ki at Vasopressin V2 receptor [1] of 0.134 µM.

`O=C(c1ccc(/N=N\c2ccccc2-c2ccccc2)cc1Cl)N1Cc2cccn2Cc2ccccc21` showed a Ki at Vasopressin V2 receptor [1] of 0.787 µM.

The molecule `O=C(c1ccc(/N=N/c2cccc(-c3ccccc3)c2)cc1Cl)N1Cc2cccn2Cc2ccccc21` came in with a Ki on Vasopressin V2 receptor [2] of 2.18 µM.

At Vasopressin V2 receptor [1], `O=C(c1ccc(/N=N\c2ccccc2)cc1Cl)N1Cc2cccn2Cc2ccccc21` yielded a Ki of 0.093 µM.

As for `O=C(c1ccc(/N=N\c2cccc(-c3ccccc3)c2)cc1Cl)N1Cc2cccn2Cc2ccccc21`, the Ki on Vasopressin V2 receptor [1] was 0.663 µM.

For `Cc1ccc(F)cc1C(=O)Nc1ccc(C(=O)N2Cc3cccn3Cc3ccccc32)c(Cl)c1`, the inhibition result at Vasopressin V2 receptor [10] and at Vasopressin V2 receptor [11] was “inactive” throughout. Further, the figures for the K on Vasopressin V2 receptor [27] and at Vasopressin V2 receptor [28] were 4.6 10^7/M/min and 0.06 min⁻¹, respectively. At Vasopressin V2 receptor [29], the TIME was determined as 0.3 h.

Broadly, the Ki is a measure of affinity in units of concentration, obtained from inhibition or displacement. Usually inhibition stands for the drop in the measured response relative to a control, in per cent.
